Test [1] addresses mTOR (human recombinant aa mTOR 1360-2549) (Homo sapiens (Human), UniProt P42345). The test can be described thus: mTOR enzymatic test by TR-FRET (phosphorylation of GFP-4EBP1). Format: biochemical. The method in brief:
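TR-FRET detection of GFP-4EBP1 phosphorylation by a terbium-labelled anti-phospho-Thr46 antibody. Kinase reaction ran 30 min at room temperature, was quenched with EDTA (10 mM final) plus Tb-antibody (2 nM final) and left 60 min. Emission at 520 and 490 nm after 340 nm excitation, reported as the 520/490 ratio.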
In general terms: Time-resolved FRET reads energy transfer from a long-lived donor to a nearby acceptor.

The target in test [2] is PI3Kα (p110α/p85α) (Homo sapiens (Human), UniProt P42336). The test can be described thus: PI3Kα enzymatic test by measuring the consumption of ATP. It is filed as biochemical. An outline of the steps: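 p110α/p85α (1.7 μg/ml) with 50 μM PIP2 and 2 μM ATP in pH 7.5 Tris buffer with EGTA, MgCl2, Chaps, DTT; reaction 90 min. Remaining ATP measured by luciferin/luciferase luminescence; IC50 from threefold serial dilutions spanning at least 10 000-fold.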
PI3Kα (p110α/p85α), sequence (P42336 whole entry): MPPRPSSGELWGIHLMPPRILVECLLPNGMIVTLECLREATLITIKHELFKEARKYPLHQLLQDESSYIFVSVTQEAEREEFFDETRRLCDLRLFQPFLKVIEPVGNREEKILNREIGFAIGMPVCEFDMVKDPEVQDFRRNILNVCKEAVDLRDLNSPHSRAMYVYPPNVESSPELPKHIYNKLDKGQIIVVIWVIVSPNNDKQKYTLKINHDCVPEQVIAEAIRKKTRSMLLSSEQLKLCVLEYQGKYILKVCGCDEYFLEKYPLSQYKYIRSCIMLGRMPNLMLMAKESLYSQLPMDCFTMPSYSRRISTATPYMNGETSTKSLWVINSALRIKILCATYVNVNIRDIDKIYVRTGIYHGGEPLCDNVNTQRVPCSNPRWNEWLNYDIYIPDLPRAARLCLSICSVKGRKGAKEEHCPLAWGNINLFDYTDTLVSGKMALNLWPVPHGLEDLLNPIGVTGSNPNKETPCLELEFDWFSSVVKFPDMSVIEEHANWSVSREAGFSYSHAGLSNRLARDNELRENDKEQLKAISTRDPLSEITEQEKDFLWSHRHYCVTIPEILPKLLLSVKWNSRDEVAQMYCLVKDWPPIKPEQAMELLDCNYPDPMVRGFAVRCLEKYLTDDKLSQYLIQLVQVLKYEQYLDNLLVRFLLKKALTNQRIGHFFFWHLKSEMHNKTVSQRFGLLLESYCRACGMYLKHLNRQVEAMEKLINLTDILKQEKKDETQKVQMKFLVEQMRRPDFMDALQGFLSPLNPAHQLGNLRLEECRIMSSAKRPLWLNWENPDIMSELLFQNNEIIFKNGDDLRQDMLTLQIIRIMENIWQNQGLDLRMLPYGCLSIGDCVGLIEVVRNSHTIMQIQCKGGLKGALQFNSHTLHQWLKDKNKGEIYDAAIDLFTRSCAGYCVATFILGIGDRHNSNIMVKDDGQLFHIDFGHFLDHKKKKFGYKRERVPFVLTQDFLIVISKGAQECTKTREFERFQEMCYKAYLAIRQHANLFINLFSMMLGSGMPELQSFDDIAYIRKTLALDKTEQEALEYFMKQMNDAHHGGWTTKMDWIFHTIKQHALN
PI3Kα (p110α/p85α), sequence (P27986 whole entry partner): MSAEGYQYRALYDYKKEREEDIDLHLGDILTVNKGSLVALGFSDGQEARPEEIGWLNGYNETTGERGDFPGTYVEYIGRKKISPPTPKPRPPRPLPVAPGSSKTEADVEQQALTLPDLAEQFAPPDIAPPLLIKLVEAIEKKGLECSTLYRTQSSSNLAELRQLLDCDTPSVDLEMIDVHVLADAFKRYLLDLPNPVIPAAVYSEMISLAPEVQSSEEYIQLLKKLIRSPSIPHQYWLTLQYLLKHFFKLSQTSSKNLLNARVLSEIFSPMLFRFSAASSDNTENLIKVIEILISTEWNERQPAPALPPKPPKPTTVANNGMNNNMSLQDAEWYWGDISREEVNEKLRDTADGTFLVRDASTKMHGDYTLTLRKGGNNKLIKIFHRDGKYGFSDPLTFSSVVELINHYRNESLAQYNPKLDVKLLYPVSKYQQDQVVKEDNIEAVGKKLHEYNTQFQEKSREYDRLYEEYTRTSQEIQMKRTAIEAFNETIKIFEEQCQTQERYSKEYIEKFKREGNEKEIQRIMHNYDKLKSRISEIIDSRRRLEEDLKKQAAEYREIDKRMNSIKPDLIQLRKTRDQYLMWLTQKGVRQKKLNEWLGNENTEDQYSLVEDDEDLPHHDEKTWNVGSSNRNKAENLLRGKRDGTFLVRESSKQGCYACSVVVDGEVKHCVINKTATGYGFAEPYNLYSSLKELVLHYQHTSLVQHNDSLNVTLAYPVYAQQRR

Test [3] has as its system U87MG tumour cells. In words: Test of in vitro proliferation of U87MG tumour cells. Format: cell-based. The following applies: U87MG cells, 72 hours, read-out: U87 Cell Proliferation IC50. As for the experimental part:
Model 4: Test of in vitro Proliferation of U87MG Tumour Cells.
The cell growth is determined with the reagent CellTiter 96 AQueous One Solution Cell Proliferation Assay from Promega (Cat. No. G3581).

Test [4] concerns Akt-pS473 in U87MG cells.
The mark [5] stands for this setting: Homo sapiens, U-87 MG, read-out: U87 Akt-pS473 % Inhibition or IC50, nM (IC50), U87MG cells.

Where two headings read alike, the source gives them in different places. Bounds are passed on as bounds.

mTOR (human recombinant aa mTOR 1360-2549), sequence (P42345 1360-2549): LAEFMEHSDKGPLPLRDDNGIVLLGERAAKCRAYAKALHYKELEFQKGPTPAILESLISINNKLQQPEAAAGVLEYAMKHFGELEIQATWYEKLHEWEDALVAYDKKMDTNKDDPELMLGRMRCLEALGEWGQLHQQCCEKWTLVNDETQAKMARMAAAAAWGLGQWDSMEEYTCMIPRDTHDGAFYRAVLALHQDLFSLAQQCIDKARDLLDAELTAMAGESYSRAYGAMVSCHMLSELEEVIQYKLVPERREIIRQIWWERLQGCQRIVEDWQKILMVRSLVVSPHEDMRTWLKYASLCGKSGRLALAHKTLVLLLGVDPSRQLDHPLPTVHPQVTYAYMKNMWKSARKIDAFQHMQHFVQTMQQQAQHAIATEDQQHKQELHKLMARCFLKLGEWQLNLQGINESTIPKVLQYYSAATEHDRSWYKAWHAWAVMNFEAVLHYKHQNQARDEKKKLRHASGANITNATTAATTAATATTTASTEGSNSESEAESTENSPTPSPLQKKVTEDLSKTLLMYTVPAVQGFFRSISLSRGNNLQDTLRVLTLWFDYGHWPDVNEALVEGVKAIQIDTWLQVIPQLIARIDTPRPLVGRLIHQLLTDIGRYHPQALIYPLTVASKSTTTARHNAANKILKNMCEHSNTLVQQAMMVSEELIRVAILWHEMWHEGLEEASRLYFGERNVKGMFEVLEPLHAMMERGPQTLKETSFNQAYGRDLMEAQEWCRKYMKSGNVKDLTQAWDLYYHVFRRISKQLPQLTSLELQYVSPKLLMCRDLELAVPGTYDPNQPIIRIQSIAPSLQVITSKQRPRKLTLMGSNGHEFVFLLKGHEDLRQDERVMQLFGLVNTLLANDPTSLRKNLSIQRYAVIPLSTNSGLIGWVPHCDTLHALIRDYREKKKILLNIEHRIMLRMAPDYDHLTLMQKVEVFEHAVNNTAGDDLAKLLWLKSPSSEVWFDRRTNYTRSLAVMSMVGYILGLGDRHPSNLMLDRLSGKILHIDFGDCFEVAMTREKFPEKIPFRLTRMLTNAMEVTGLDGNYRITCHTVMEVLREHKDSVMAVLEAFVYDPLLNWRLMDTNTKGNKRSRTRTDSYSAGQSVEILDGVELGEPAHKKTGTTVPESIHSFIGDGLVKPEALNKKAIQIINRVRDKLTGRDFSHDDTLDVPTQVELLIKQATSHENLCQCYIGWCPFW

Turning to `CCN1CC(C)(C)Oc2nc(N3CC4CCC(C3)O4)nc(-c3ccc(NC(=O)Nc4ccc(N5CCOC[C@@H]5C)nc4)c(F)c3)c2C1=O` [Example 29, 1-{4-[6-ethyl-8,8-dimethyl-2-(8-oxa-3-azabicyclo[3.2.1]oct-3-yl)-5-oxo-5,6,7,8-tetrahydro-9-oxa-1,3,6-triazabenzocyclohepten-4-yl]-2-fluorophenyl}-3-[6-((S)-3-methylmorpholin-4-yl)pyridin-3-yl]urea], the IC50 in test [1] is 38 nM; in test [3] (Homo sapiens, U-87 MG, 72 h), 165 nM; in test [4] (setting [5]), 32 nM. Also, the “PI3Ka IC50” value in test [2] is listed as greater than 10000 nM.

For the molecule `CCN1CC(C)(C)Oc2nc(N3CC4CCC(C3)O4)nc(-c3ccc(NC(=O)Nc4ccc(OC5CCOC5)cc4)c(F)c3)c2C1=O` (stereo not shown) [Example 77, 1-{4-[6-Ethyl-8,8-dimethyl-2-(8-oxa-3-azabicyclo[3.2.1]oct-3-yl)-5-oxo-5,6,7,8-tetrahydro-9-oxa-1,3,6-triazabenzocyclohepten-4-yl]-2-fluorophenyl}-3-[4-(tetrahydrofuran-3-yloxy)phenyl]urea], the IC50 in test [1] came to 56 nM; in test [3] (Homo sapiens, U-87 MG, 72 h), 53 nM; in test [4] (setting [5]), 16 nM. For the same molecule, the “PI3Ka IC50” value in test [2] amounted to 4490 nM.

For the molecule `CCN1CC(C)(C)Oc2nc(N3CC4CCC(C3)O4)nc(-c3ccc(NC(=O)Nc4cnc(OC)cn4)cc3)c2C1=O` [Example 198, 1-{4-[6-Ethyl-8,8-dimethyl-2-(8-oxa-3-azabicyclo[3.2.1]oct-3-yl)-5-oxo-5,6,7,8-tetrahydro-9-oxa-1,3,6-triazabenzocyclohepten-4-yl]phenyl}-3-(5-methoxypyrazin-2-yl)urea], the IC50 in test [1] stood at 57 nM; in test [3] (Homo sapiens, U-87 MG, 72 h), 318 nM; in test [4] (setting [5]), 44 nM. In addition, in test [2], the “PI3Ka IC50” value is recorded as greater than 10000 nM.

On to `CCN1CC(C)(C)Oc2nc(N3CCOCC3)nc(-c3ccc(NC(=O)OC)cc3)c2C1=O` [Example 103, [4-(6-Ethyl-8,8-dimethyl-2-morpholin-4-yl-5-oxo-5,6,7,8-tetrahydro-9-oxa-1,3,6-triazabenzocyclohepten-4-yl)phenyl]carbamic acid methyl ester], for which the IC50 stood at 194 nM in test [1]; 3510 nM in test [3] (Homo sapiens, U-87 MG, 72 h); 425 nM in test [4] (setting [5]). Besides, in test [2], the “PI3Ka IC50” value worked out at 6590 nM.

Regarding `CCN1CC(C)(C)Oc2nc(N3CC4CCC(C3)O4)nc(-c3ccc(NC(=O)NC4COC4)c(F)c3)c2C1=O` [Example 137, 1-{4-[6-Ethyl-8,8-dimethyl-2-(8-oxa-3-azabicyclo[3.2.1]oct-3-yl)-5-oxo-5,6,7,8-tetrahydro-9-oxa-1,3,6-triazabenzocyclohepten-4-yl]-2-fluorophenyl}-3-oxetan-3-ylurea], the IC50 in test [1] worked out at 29 nM; in test [3] (Homo sapiens, U-87 MG, 72 h), 1330 nM; in test [4] (setting [5]), 241 nM. In addition, the “PI3Ka IC50” value in test [2] is on record as greater than 10000 nM.

Take `CCNC(=O)Nc1ccc(-c2nc(N3CCOCC3)nc3c2C(=O)N(CC)CC(C)(C)O3)cc1` [Example 96, 1-Ethyl-3-[4-(6-ethyl-8,8-dimethyl-2-morpholin-4-yl-5-oxo-5,6,7,8-tetrahydro-9-oxa-1,3,6-triazabenzocyclohepten-4-yl)phenyl]urea]: the IC50 in test [1] was 72 nM; in test [3] (Homo sapiens, U-87 MG, 72 h) it was 1470 nM; in test [4] (setting [5]), 107 nM. Moreover, the “PI3Ka IC50” value in test [2] came out at 1444 nM.

With `CNC(=O)Nc1ccc(-c2nc(N3CC4CCC(C3)O4)nc3c2C(=O)N(C)CC(C)(C)O3)cc1F` [Example 45, 1-{2-Fluoro-4-[6,8,8-trimethyl-2-(8-oxa-3-azabicyclo[3.2.1]oct-3-yl)-5-oxo-5,6,7,8-tetrahydro-9-oxa-1,3,6-triazabenzocyclohepten-4-yl]phenyl}-3-methylurea], the IC50 came to 24 nM in test [1]; 85 nM in test [3] (Homo sapiens, U-87 MG, 72 h); 32 nM in test [4] (setting [5]). In test [2], the “PI3Ka IC50” value is on record as 4000 nM.

In the case of `CCN1CC(C)(C)Oc2nc(N3CC4CCC(C3)O4)nc(-c3ccc(NC(=O)Nc4ccc(N5CCC(O)C5)cn4)cc3)c2C1=O` (stereo not shown) [Example 72, 1-{4-[6-Ethyl-8,8-dimethyl-2-(8-oxa-3-azabicyclo[3.2.1]oct-3-yl)-5-oxo-5,6,7,8-tetrahydro-9-oxa-1,3,6-triazabenzocyclohepten-4-yl]phenyl}-3-[5-(3-hydroxypyrrolidin-1-yl)pyridin-2-yl]urea], the IC50 in test [1] turned out to be 23 nM; in test [3] (Homo sapiens, U-87 MG, 72 h), 498 nM; in test [4] (setting [5]), 58 nM. Further, the “PI3Ka IC50” value in test [2] is recorded as greater than 10000 nM.

`CCN1CC(C)(C)Oc2nc(N3CC4CCC(C3)O4)nc(-c3ccc(NC(=O)OC[C@H](C)O)c(F)c3)c2C1=O` [Example 20, {4-[6-ethyl-8,8-dimethyl-2-(8-oxa-3-azabicyclo[3.2.1]oct-3-yl)-5-oxo-5,6,7,8-tetrahydro-9-oxa-1,3,6-triazabenzocyclohepten-4-yl]-2-fluorophenyl}carbamic acid (S)-2-hydroxypropyl ester]: the IC50 in test [1] is 286 nM; in test [3] (Homo sapiens, U-87 MG, 72 h), 7590 nM; in test [4] (setting [5]), greater than 1000 nM. In addition, the “PI3Ka IC50” value in test [2] is on record as greater than 10000 nM.

Consider `CCN1CC(C)(C)Oc2nc(N3CCOC[C@@H]3C)nc(-c3ccc(NC(=O)NC)c(F)c3)c2C1=O` [Example 2, 1-{4-[6-Ethyl-8,8-dimethyl-2-((S)-3-methylmorpholin-4-yl)-5-oxo-5,6,7,8-tetrahydro-9-oxa-1,3,6-triazabenzocyclohepten-4-yl]-2-fluorophenyl}-3-methylurea], for which the IC50 in test [1] turned out to be 22 nM; in test [3] (Homo sapiens, U-87 MG, 72 h), 142 nM; in test [4] (setting [5]), 31 nM. The “PI3Ka IC50” value in test [2] turned out to be 547 nM.

In the case of `CCN1CC(C)(C)Oc2nc(N3CC4CCC(C3)O4)nc(-c3ccc(NC(=O)Nc4cnn(C)c4)c(F)c3)c2C1=O` [Example 143, 1-{4-[6-Ethyl-8,8-dimethyl-2-(8-oxa-3-azabicyclo[3.2.1]oct-3-yl)-5-oxo-5,6,7,8-tetrahydro-9-oxa-1,3,6-triazabenzocyclohepten-4-yl]-2-fluorophenyl}-3-(1-methyl-1H-pyrazol-4-yl)urea], the IC50 in test [1] stood at 19 nM; in test [3] (Homo sapiens, U-87 MG, 72 h), 295 nM; in test [4] (setting [5]), 62 nM. Further, the “PI3Ka IC50” value in test [2] was 3180 nM.

One may read the inhibition as the percentage by which the read-out fell short of the control. On to `CCN1CC(C)(C)Oc2nc(N3CCOC[C@@H]3C)nc(-c3ccc(NC(=O)Nc4ccc(OC)nc4)c(C)c3)c2C1=O` [Example 196, 1-{4-[6-Ethyl-8,8-dimethyl-2-((S)-3-methylmorpholin-4-yl)-5-oxo-5,6,7,8-tetrahydro-9-oxa-1,3,6-triazabenzocyclohepten-4-yl]-2-methylphenyl}-3-(6-methoxypyridin-3-yl)urea], for which the IC50 in test [1] is 276 nM; in test [3] (Homo sapiens, U-87 MG, 72 h), 5050 nM. Also, the “PI3Ka IC50” value in test [2] was found to be 7470 nM. In addition, the inhibition at 3 µM in test [4] (Homo sapiens, U-87 MG, read-out: U87 Akt-pS473 % Inhibition) is 60%.

With `CCN1CC(C)(C)Oc2nc(N3CC4CCC(C3)O4)nc(-c3ccc(NC(=O)Nc4ccc(OC)nc4)c(F)c3)c2C1=O` [Example 240, 1-{4-[6-Ethyl-8,8-dimethyl-2-(8-oxa-3-azabicyclo[3.2.1]oct-3-yl)-5-oxo-5,6,7,8-tetrahydro-9-oxa-1,3,6-triazabenzocyclohepten-4-yl]-2-fluorophenyl}-3-(6-methoxypyridin-3-yl)urea], the IC50 in test [1] came out at 61 nM; in test [3], 75 nM; in test [4] (read-out: U87 Akt-pS473 % Inhibition or IC50, nM (IC50), U87MG cells) it was 29 nM. In addition, the “PI3Ka IC50” value in test [2] was greater than 10000 nM.

Take `CCN1CC(C)(C)Oc2nc(N3CC4CCC(C3)O4)nc(-c3ccc(NC(=O)Nc4ccncc4F)c(F)c3)c2C1=O` [Example 76]: the IC50 worked out at 28 nM in test [1]; 367 nM in test [3] (Homo sapiens, U-87 MG, 72 h); 29 nM in test [4] (setting [5]). The “PI3Ka IC50” value in test [2] was 2360 nM.

Regarding `CNC(=O)Nc1ccc(-c2nc(N3CCOC[C@@H]3C)nc3c2C(=O)N(CCOC)CC(C)(C)O3)cc1F` [Example 225, 1-{2-Fluoro-4-[6-(2-methoxyethyl)-8,8-dimethyl-2-((S)-3-methylmorpholin-4-yl)-5-oxo-5,6,7,8-tetrahydro-9-oxa-1,3,6-triazabenzocyclohepten-4-yl]phenyl}-3-methylurea], the IC50 in test [1] stood at 36 nM; in test [3] (Homo sapiens, U-87 MG, 72 h) it was 365 nM; in test [4] (setting [5]), 91 nM. The “PI3Ka IC50” value in test [2] was determined as 1360 nM.

Take `CCN1CC(C)(C)Oc2nc(N3CCOC[C@@H]3C)nc(-c3ccc(NC(=O)Nc4cc(C)nc(C)n4)cc3)c2C1=O` [Example 91, 1-(2,6-Dimethylpyrimidin-4-yl)-3-{4-[6-ethyl-8,8-dimethyl-2-((S)-3-methylmorpholin-4-yl)-5-oxo-5,6,7,8-tetrahydro-9-oxa-1,3,6-triazabenzocyclohepten-4-yl]phenyl}urea]: the IC50 in test [1] turned out to be 53 nM; in test [3] (Homo sapiens, U-87 MG, 72 h) it was 410 nM; in test [4] (setting [5]), 47 nM. Further, the “PI3Ka IC50” value in test [2] is listed as 4640 nM.

These data come from patent US9120812B2, “Pyrimidooxazocine derivatives as mTOR-inhibitors” (SANOFI, priority 2012, dated 2015).
